Experimental data from article PMC5762315, “Inhibition of polo-like kinase 4 (PLK4): a new therapeutic option for rhabdoid tumors and pediatric medulloblastoma” (Oncotarget, 2017).
Values joined by “and” are separate entries in the source; they are usually repeats but may differ in a detail not shown here. Equal values may be shown once.

Tests used:
Test in all cases: biochemical
Format in all cases: biochemical
various kinases [1] = target: various kinases (Homo sapiens, UniProt P22607, V555M); conditions: FGFR3 V555M
various kinases [2] = target: various kinases (Homo sapiens, UniProt P21709); conditions: EPHA1
various kinases [3] = target: various kinases (Homo sapiens, UniProt O14920); conditions: IKBKB (IKK beta)
various kinases [4] = target: various kinases (Homo sapiens, UniProt P43250); conditions: GRK6
various kinases [5] = target: various kinases (Homo sapiens, UniProt P12931); conditions: kinase SRC; ZLYTE
various kinases [6] = target: T1, various kinases (Homo sapiens, UniProt Q9BXA7); conditions: kinase STK22D (TSSK1); ZLYTE
T1 sequence (Q9BXA7 1-367): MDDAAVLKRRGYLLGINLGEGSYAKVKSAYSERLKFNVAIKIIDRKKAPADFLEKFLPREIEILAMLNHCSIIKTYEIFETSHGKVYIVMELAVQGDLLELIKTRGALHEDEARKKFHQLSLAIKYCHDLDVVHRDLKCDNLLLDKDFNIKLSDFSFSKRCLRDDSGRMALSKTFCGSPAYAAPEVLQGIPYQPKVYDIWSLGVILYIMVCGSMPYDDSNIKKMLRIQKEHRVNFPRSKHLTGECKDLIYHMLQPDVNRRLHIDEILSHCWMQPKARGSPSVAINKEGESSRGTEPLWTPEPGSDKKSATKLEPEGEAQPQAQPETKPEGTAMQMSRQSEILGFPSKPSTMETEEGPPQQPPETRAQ

various kinases [7] = target: various kinases (Homo sapiens, UniProt P30530); conditions: AXL
various kinases [8] = target: various kinases (Homo sapiens, UniProt Q16539)
various kinases [9] = target: various kinases (Homo sapiens, UniProt O43781); conditions: DYRK3
various kinases [10] = target: various kinases (Homo sapiens, UniProt P07949, S891A); conditions: kinase RET S891A; ZLYTE
various kinases [11] = target: various kinases (Homo sapiens, UniProt P42679); conditions: MATK (HYL)
various kinases [12] = target: various kinases (Homo sapiens, UniProt P06239); conditions: LCK
various kinases [13] = target: various kinases (Homo sapiens, UniProt P78362); conditions: kinase SRPK2; ZLYTE
various kinases [14] = target: various kinases (Homo sapiens, UniProt Q9Y463); conditions: DYRK1B
various kinases [15] = target: various kinases (Homo sapiens, UniProt P25098); conditions: ADRBK1 (GRK2)
various kinases [16] = target: various kinases (Homo sapiens, UniProt P29323); conditions: EPHB2
various kinases [17] = target: various kinases (Homo sapiens, UniProt Q16644); conditions: MAPKAPK3
various kinases [18] = target: T2, various kinases (Homo sapiens, UniProt Q02156); conditions: kinase PRKCE (PKC epsilon); ZLYTE
T2 sequence (Q02156 1-737): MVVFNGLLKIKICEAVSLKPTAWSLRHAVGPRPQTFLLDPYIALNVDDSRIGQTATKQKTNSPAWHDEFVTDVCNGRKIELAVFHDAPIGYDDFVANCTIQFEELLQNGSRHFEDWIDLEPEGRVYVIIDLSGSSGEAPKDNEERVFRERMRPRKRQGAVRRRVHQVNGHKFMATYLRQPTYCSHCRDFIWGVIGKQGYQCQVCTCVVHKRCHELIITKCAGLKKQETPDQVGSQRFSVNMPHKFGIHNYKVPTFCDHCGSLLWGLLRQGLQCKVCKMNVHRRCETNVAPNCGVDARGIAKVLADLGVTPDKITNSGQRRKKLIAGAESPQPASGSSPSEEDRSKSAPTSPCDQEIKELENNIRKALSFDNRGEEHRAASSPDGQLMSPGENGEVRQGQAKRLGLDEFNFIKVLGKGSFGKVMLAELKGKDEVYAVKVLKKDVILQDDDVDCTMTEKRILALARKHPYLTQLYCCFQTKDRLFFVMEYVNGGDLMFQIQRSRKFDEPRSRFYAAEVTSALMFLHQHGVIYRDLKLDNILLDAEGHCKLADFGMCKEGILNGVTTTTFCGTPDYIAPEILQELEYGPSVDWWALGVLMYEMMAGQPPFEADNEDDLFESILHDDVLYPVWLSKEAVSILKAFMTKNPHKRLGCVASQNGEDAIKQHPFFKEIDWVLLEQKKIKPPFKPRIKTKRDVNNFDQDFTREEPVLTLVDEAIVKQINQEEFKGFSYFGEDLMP

various kinases [19] = target: various kinases (Homo sapiens, UniProt O15530)
various kinases [20] = target: various kinases (Homo sapiens, UniProt Q15759); conditions: MAPK11 (p38 beta)
various kinases [21] = target: various kinases (Homo sapiens, UniProt P00533, C797S); conditions: EGFR (ErbB1) C797S
various kinases [22] = target: various kinases (Homo sapiens, UniProt P07947); conditions: kinase YES1; ZLYTE
various kinases [23] = target: various kinases (Homo sapiens, UniProt O75676); conditions: kinase RPS6KA4 (MSK2); ZLYTE
various kinases [24] = target: various kinases (Homo sapiens, UniProt Q8TDX7); conditions: NEK7
Wherever % Inhibition Average is given: test concentration or dose not given here.
Wherever % Inhibition Duplicate #1 is given: test concentration or dose not given here.
Wherever % Inhibition Duplicate #2 is given: test concentration or dose not given here.

various kinases (Homo sapiens, UniProt P07949, S891A), sequence (P07949 29-1114 S891A): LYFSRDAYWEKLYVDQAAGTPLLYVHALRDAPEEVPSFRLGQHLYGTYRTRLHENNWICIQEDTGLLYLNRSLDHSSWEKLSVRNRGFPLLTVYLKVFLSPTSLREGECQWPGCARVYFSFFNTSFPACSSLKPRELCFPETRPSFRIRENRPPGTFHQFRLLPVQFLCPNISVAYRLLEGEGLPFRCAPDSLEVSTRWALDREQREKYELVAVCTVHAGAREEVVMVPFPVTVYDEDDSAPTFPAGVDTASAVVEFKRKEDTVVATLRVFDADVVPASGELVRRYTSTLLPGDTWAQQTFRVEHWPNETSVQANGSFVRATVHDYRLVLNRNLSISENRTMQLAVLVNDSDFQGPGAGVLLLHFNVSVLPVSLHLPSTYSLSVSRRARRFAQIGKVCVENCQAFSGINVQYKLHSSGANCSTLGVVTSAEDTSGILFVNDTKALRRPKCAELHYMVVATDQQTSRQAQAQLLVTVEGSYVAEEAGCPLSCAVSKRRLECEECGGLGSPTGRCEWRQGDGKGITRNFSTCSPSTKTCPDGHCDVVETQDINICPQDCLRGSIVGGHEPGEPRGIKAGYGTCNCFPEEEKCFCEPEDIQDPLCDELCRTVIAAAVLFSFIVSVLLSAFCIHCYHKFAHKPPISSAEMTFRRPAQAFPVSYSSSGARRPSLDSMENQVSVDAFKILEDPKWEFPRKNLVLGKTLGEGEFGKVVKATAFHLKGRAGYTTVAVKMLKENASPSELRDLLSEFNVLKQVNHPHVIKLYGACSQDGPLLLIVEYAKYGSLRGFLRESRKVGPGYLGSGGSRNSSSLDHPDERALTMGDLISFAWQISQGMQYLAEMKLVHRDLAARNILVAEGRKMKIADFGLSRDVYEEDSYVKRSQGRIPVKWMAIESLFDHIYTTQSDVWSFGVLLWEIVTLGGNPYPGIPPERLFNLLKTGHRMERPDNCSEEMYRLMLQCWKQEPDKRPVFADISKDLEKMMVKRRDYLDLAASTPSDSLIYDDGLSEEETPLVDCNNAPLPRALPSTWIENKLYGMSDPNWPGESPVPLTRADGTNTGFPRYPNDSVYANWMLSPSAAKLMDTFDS
various kinases (Homo sapiens, UniProt O15530), sequence (O15530 whole entry): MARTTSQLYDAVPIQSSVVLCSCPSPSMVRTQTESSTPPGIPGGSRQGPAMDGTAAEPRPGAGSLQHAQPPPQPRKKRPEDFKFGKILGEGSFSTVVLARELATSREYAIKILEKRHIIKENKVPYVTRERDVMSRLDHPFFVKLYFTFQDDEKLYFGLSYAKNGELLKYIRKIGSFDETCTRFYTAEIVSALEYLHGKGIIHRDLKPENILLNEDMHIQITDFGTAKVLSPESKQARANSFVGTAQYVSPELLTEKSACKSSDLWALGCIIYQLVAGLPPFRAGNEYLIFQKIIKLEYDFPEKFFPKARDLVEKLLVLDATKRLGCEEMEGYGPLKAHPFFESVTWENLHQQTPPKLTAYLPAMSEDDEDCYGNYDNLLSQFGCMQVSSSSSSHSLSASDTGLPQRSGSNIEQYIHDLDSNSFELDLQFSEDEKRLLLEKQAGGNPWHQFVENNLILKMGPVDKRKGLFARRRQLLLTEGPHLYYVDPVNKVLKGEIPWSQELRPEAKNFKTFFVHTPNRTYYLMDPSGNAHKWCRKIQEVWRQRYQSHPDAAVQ
various kinases (Homo sapiens, UniProt P78362), sequence (P78362 whole entry): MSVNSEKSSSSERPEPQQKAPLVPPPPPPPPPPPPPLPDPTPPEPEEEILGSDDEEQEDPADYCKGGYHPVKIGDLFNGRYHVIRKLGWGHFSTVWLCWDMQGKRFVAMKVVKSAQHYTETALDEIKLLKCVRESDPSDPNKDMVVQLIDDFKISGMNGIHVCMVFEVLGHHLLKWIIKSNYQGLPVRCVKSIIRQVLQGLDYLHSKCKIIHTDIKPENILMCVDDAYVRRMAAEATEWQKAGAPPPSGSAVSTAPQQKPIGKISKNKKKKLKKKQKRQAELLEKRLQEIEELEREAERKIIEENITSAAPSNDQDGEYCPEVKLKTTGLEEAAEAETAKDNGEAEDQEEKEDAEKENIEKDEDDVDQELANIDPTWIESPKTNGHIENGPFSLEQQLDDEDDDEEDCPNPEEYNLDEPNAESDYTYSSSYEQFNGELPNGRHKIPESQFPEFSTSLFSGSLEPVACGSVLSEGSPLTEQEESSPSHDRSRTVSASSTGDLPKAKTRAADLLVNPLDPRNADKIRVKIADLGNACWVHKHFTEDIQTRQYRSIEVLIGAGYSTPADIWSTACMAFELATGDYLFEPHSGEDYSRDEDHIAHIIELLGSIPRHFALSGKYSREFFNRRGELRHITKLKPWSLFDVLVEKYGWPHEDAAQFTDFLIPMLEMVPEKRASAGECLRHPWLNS
various kinases (Homo sapiens, UniProt P07947), sequence (P07947 whole entry): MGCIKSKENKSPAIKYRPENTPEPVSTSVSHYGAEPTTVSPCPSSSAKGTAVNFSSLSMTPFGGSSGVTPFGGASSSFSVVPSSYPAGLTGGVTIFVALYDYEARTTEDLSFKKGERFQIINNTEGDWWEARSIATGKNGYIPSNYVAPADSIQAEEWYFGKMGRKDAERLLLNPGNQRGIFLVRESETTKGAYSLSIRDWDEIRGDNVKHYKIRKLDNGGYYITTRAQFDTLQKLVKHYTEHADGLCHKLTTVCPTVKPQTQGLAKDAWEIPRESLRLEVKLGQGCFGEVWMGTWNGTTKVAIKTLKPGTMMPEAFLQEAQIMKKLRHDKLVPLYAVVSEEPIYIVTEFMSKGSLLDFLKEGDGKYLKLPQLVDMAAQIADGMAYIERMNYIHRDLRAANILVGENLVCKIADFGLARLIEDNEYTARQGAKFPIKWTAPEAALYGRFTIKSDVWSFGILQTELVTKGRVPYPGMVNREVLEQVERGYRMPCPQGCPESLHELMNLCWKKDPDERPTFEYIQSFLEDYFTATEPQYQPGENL
various kinases (Homo sapiens, UniProt P12931), sequence (P12931 whole entry): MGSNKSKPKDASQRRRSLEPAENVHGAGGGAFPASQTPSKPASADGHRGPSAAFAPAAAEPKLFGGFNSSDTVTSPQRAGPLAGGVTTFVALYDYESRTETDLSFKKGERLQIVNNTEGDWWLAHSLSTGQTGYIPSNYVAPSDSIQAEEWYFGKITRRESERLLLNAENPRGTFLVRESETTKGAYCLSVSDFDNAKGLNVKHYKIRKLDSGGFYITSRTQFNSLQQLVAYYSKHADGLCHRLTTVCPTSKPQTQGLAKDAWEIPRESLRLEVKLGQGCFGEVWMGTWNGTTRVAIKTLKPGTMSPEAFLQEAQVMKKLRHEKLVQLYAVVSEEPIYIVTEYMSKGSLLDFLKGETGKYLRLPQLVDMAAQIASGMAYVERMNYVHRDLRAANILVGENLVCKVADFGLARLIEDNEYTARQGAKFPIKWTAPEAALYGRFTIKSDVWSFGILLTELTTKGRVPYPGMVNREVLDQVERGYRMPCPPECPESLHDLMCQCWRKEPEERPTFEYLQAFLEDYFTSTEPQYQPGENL
various kinases (Homo sapiens, UniProt Q16539), sequence (Q16539 whole entry): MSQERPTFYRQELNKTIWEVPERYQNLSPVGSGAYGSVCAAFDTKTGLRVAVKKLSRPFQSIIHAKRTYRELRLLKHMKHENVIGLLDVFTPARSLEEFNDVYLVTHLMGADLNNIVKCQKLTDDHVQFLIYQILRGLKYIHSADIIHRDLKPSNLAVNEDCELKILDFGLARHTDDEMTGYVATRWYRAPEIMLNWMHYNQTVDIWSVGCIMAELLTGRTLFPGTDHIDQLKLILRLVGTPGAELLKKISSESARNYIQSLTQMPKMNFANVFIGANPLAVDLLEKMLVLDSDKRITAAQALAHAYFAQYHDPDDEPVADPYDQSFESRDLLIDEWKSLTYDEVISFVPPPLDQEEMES
various kinases (Homo sapiens, UniProt O75676), sequence (O75676 whole entry): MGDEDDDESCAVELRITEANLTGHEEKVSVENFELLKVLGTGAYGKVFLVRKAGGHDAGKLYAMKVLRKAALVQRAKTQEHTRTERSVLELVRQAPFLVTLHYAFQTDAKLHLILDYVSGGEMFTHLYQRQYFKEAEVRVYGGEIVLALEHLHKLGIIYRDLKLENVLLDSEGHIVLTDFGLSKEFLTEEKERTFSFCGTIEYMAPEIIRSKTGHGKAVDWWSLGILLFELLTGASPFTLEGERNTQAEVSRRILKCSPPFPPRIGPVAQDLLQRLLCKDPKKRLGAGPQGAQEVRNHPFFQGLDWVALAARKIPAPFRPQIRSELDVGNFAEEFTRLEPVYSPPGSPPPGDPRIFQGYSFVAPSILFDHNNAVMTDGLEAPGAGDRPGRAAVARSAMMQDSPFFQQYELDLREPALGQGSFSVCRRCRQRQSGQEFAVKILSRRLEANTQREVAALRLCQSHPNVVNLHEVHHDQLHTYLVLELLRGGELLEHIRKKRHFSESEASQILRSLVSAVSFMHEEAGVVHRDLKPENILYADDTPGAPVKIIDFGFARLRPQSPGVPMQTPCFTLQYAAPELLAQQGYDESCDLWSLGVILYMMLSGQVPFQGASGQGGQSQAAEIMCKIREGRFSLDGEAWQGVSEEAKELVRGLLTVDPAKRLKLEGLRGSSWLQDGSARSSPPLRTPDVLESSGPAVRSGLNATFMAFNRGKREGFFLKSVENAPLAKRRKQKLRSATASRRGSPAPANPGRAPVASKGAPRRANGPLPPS
various kinases (Homo sapiens, UniProt Q16644), sequence (Q16644 whole entry): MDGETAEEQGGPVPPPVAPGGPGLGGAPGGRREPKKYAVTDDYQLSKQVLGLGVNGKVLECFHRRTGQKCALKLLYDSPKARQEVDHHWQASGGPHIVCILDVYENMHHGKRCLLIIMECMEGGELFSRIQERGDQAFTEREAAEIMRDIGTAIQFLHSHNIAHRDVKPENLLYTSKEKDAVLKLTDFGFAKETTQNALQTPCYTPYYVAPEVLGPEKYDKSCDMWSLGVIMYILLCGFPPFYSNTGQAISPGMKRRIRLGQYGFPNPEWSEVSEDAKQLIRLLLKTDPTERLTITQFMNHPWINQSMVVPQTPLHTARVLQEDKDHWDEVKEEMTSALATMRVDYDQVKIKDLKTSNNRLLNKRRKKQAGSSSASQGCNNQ

## COc1ccc2c(c1)[C@]1(C[C@H]1c1ccc3c(/C=C/c4ccc(CN5C[C@@H](C)O[C@@H](C)C5)cc4)n[nH]c3c1)C(=O)N2 [CFI-400945]
Various kinases [1]
  % Inhibition: 56%
Various kinases [2]
  % Inhibition: 20% and 26%
Various kinases [3]
  % Inhibition: 5% and 4%
Various kinases [4]
  % Inhibition: 5%
Various kinases [5]
  % Inhibition Average: 13%
  % Inhibition Duplicate #1: 13%
  % Inhibition Duplicate #2: 13%
Various kinases [6]
  % Inhibition Average: 6%
  % Inhibition Duplicate #1: 7%
  % Inhibition Duplicate #2: 5%
Various kinases [7]
  % Inhibition: 10% and 11%
Various kinases [8]; MAPK14 (p38 alpha)
  % Inhibition: 8% and 0%
Various kinases [8]; MAPK14 (p38 alpha) Direct
  % Inhibition: 11%
Various kinases [9]
  % Inhibition: 9% and 5%
Various kinases [10]
  % Inhibition Average: 55%
  % Inhibition Duplicate #1: 59%
  % Inhibition Duplicate #2: 52%
Various kinases [11]
  % Inhibition: 6% and 4%
Various kinases [12]
  % Inhibition: 39% and 40%
Various kinases [13]
  % Inhibition Average: 7%
  % Inhibition Duplicate #1: 10%
  % Inhibition Duplicate #2: 4%
Various kinases [14]
  % Inhibition: -1% and -5%
Various kinases [15]
  % Inhibition: 5% and 4%
Various kinases [16]
  % Inhibition: 5%
Various kinases [17]
  % Inhibition: 2% and -4%
Various kinases [18]
  % Inhibition Average: -2%
  % Inhibition Duplicate #1: -5%
  % Inhibition Duplicate #2: 1%
Various kinases [19]; PDK1
  % Inhibition: 3% and 2%
Various kinases [19]; PDK1 Direct
  % Inhibition: 6%
Various kinases [20]
  % Inhibition: 2% and 5%
Various kinases [21]
  % Inhibition: 11% and 5%
Various kinases [22]
  % Inhibition Average: 17%
  % Inhibition Duplicate #1: 16%
  % Inhibition Duplicate #2: 18%
Various kinases [23]
  % Inhibition Average: 0%
  % Inhibition Duplicate #1: -2%
  % Inhibition Duplicate #2: 3%
Various kinases [24]
  % Inhibition: 0% and 6%
